The values below come from patent US6620828B2, “Thiazole compounds and pharmaceutical compositions for inhibiting protein kinases and methods for their use” (Agouron Pharmaceuticals, Inc., priority 1999, dated 2003).

Common to all, as to format: biochemical
For test [1], the target named is T1, phosphorylated VEGF-R2Δ50 (FLVK-P) (Homo sapiens, UniProt P35968, DEL940-989/E990V).
T1 construct: VEGF-R2Δ50 contains residues 806-939 and 990-1171; made in house; host or cells: baculovirus/insect cells
T1 sequence (P35968 with tags, fused parts or gaps DEL940-989/E990V limits assumed): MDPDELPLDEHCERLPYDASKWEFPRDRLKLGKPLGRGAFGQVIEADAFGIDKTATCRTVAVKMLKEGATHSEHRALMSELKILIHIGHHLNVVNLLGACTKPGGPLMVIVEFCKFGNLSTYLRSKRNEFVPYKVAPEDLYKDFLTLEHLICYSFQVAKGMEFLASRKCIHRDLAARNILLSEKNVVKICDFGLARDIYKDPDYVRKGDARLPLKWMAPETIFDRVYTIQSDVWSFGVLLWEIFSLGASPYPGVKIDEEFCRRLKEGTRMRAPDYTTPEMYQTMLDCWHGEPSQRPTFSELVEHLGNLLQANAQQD
Description: VEGF-R2 coupled spectrophotometric (FLVK-P) assay. Particulars: combinatorial library compounds; for inhibition at 20 µM: read-out: VEGF % inhibition at 20 μM, 20 μM. The gist of the method: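 Baculovirus-expressed human VEGF-R2Δ50 (residues 806-939/990-1171, E990V) was autophosphorylated with 3 mM ATP, 40 mM MgCl2 for 2 h at 4° C. ADP formation was coupled via PK/LDH to NADH oxidation, read at 340 nm, with 5.1 mM poly(E4Y1), 1 mM ATP, 25 mM MgCl2, Hepes pH 7.5. Ki came from activity across compound concentrations.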

The target of a further test is T2, FL-CHK1 (Homo sapiens, UniProt O14757).
T2 construct: C-terminally His-tagged full-length human CHK1 (FL-CHK1); 6xHis (C); made in house; host or cells: baculovirus/insect cells
T2 sequence (O14757 1-476): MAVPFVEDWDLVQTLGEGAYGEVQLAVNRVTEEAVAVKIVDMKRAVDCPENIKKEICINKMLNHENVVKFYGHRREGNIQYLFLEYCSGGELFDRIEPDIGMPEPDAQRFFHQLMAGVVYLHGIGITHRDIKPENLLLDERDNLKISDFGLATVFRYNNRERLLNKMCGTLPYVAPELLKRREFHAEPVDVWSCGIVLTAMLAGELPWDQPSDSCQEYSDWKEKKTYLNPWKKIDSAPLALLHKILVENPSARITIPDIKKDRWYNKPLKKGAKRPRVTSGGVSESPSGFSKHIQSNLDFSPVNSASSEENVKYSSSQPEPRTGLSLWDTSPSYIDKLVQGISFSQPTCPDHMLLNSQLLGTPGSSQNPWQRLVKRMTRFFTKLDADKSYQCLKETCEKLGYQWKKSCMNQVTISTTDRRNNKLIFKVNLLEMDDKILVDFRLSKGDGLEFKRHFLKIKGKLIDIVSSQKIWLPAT
As to the kind of experiment: CHK1 assay. As to conditions: 20 μM; combinatorial library compounds. The method, boiled down: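 Full-length human CHK1 with C-terminal 6×His tag, made in baculovirus/insect cells, 10 nM, phosphorylating 0.125 mM Syntide-2 with 0.15 mM ATP in 50 mM Tris pH 7.5, 25 mM MgCl2, 400 mM NaCl. PK/LDH-coupled NADH oxidation read at 340 nm. Ki from initial rates over varied compound concentrations.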

In the next test the target is CDK2/Cyclin A complex (Homo sapiens, UniProt P24941). As to the kind of experiment: CDK2/Cyclin A assay. Particulars: 1.0 μM; combinatorial library compounds. The gist of the method:
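Radiometric assay: 150 nM CDK2/cyclin A (insect-cell CDK2, truncated cyclin A) phosphorylates His-tagged Rb fragment (residues 386-928) with 25 μM ATP plus [32P]ATP, pH 7.4 HEPES, 2% DMSO, 30 °C for 20 min. Filter-captured product counted by phosphorimager; apparent Ki from competitive or tight-binding inhibition fits.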

Another test addresses T3, CDK4/Cyclin D3 complex (Homo sapiens, UniProt P11802).
T3 construct: made in house; host or cells: insect cells co-infected with baculovirus vectors
As to the kind of experiment: CDK4/Cyclin D assay. As to conditions: 1.0 μM; combinatorial library compounds. The method, boiled down: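 Insect-cell-expressed CDK4/cyclin D3 (50 nM) phosphorylating His-tagged Rb fragment (residues 386-928) with 25 μM [^32P]ATP in HEPES pH 7.4, MgCl2, 2% DMSO; 20 min at 30 °C, EDTA stop. Filter-captured 32P by phosphorimager; apparent Ki from competitive or tight-binding inhibition fits.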

T3 sequence (P11802 whole entry): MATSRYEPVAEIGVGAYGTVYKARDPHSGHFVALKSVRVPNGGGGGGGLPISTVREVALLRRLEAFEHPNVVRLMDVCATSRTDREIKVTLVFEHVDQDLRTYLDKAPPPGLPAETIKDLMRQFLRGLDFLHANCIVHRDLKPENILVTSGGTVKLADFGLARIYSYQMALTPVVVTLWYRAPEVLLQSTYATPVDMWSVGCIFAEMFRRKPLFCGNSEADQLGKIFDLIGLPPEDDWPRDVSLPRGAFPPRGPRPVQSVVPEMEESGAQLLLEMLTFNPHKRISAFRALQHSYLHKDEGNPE
T3 sequence (P30281 whole entry partner): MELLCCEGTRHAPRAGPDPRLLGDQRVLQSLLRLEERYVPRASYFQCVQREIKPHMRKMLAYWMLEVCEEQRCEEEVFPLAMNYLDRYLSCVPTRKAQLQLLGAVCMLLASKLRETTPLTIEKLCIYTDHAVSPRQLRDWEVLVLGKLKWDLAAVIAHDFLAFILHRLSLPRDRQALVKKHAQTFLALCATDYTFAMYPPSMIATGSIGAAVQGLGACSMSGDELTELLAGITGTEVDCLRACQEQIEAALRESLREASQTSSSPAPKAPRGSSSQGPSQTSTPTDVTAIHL

On to `CN(C)c1ccc(Nc2nc(N)c(-c3nc(-c4ccc(C#N)cc4)cs3)s2)cc1`, for which the inhibition at 20 µM in test [1] stood at 11%; on FL-CHK1, 8.2%. Also, the inhibition at 1 µM amounted to 14.3% on CDK2/Cyclin A complex and 36.4% at CDK4/Cyclin D3 complex.
The matching figures for `CN(C)c1ccc(Nc2nc(N)c(-c3nc(-c4ccc5ccccc5c4)cs3)s2)cc1`: 5%, 19.6%, 26.9% and 45.5%.
In the case of `Cc1ccc(-c2csc(-c3sc(Nc4ccc(S(N)(=O)=O)cc4)nc3N)n2)c(C)c1`, the figures for the inhibition at 20 µM (in test [1]; at FL-CHK1) were 50% and 0.2%, respectively. Moreover, the values for the inhibition at 1 µM on CDK2/Cyclin A complex and on CDK4/Cyclin D3 complex were 19.6% and -13.5%, respectively.
Turning to `Cc1c(-c2csc(-c3sc(Nc4ccc(N(C)C)cc4)nc3N)n2)sc2ccc(Cl)cc12` [drawing 550], the inhibition at 20 µM in test [1] was 31%; on FL-CHK1, 41.9%. In addition, at CDK2/Cyclin A complex, the “CDK2 % Inhibition at 1.0 μM” value is listed as 17.1%. The inhibition at 1 µM on CDK4/Cyclin D3 complex is 64.3%.
`Cc1c(-c2csc(-c3sc(Nc4ccc(C(C)C)cc4)nc3N)n2)sc2ccc(Cl)cc12` [drawing 489]: in test [1] (20 μM), the “VEGF % inhibition at 20 μM” value is recorded as 42%. The “CHK1 % Inhibition at 20 μM” value at FL-CHK1 is 17.8%. Further, on CDK2/Cyclin A complex, the “CDK2 % Inhibition at 1.0 μM” value came out at 31%. At CDK4/Cyclin D3 complex, the “CDK4 % Inhibition at 1.0 μM” value was 79.9%.
For `CN(C)c1ccc(Nc2nc(N)c(-c3nc(-c4ccc(Cl)cc4)cs3)s2)cc1`, the inhibition at 20 µM in test [1] came out at 10%; on FL-CHK1, 2.5%. For the same compound, the results for the inhibition at 1 µM on CDK2/Cyclin A complex and on CDK4/Cyclin D3 complex were 11.2% and 36.5%, respectively.
In the case of `Nc1nc(Nc2ccc(S(N)(=O)=O)cc2)sc1-c1nc(-c2c(Cl)c(Cl)nc(Cl)c2Cl)cs1`, the inhibition at 20 µM in test [1] stood at 11%; on FL-CHK1, 19.8%. Also, the inhibition at 1 µM at CDK2/Cyclin A complex came out at 66.8%; at CDK4/Cyclin D3 complex, 58%.
The matching figures for `CC(C)c1ccc(Nc2nc(N)c(-c3nc(-c4ccc(F)cc4F)cs3)s2)cc1`: 46%, 19.7%, 30.6% and 91.5%.
For the compound `Nc1nc(Nc2ccc(S(N)(=O)=O)cc2)sc1-c1nc(-c2ccc[nH]2)cs1`, the results for the inhibition at 20 µM (in test [1]; on FL-CHK1) were 13% and 13.6%, respectively. The inhibition at 1 µM on CDK2/Cyclin A complex came to 14.6%; on CDK4/Cyclin D3 complex, 39.7%.
`CN(C)c1ccc(Nc2nc(N)c(-c3nc(-c4ccc(Cl)c([N+](=O)[O-])c4)cs3)s2)cc1`: the values for the inhibition at 20 µM (in test [1]; on FL-CHK1) were -2% and 16%, respectively. In addition, the results for the inhibition at 1 µM on CDK2/Cyclin A complex and on CDK4/Cyclin D3 complex were 4.1% and 59.8%, respectively.
For `CN(C)c1ccc(Nc2nc(N)c(-c3nc(-c4ccc(O)c(O)c4)cs3)s2)cc1`, the results for the inhibition at 20 µM (in test [1]; on FL-CHK1) were 34% and 46.5%, respectively. Moreover, the inhibition at 1 µM was 16.8% on CDK2/Cyclin A complex and 53% on CDK4/Cyclin D3 complex.
For `CCOC(=O)c1ccccc1-c1csc(-c2sc(Nc3ccc(S(N)(=O)=O)cc3)nc2N)n1`, the figures for the inhibition at 20 µM (in test [1]; on FL-CHK1) were 9% and 11.4%, respectively. For the same compound, the inhibition at 1 µM is 52.6% at CDK2/Cyclin A complex and 53.3% at CDK4/Cyclin D3 complex.
On to `COc1ccc(OC)c(-c2csc(-c3sc(Nc4ccc(S(N)(=O)=O)cc4)nc3N)n2)c1`, for which the inhibition at 20 µM in test [1] is 8%; on FL-CHK1, -2.3%. Moreover, the inhibition at 1 µM on CDK2/Cyclin A complex is 28.4%; on CDK4/Cyclin D3 complex, 41.2%.
Take `CC(C)c1ccc(Nc2nc(N)c(-c3nc(-c4cc(C(=O)C(Cl)(Cl)Cl)n(C)c4)cs3)s2)cc1`: the values for the inhibition at 20 µM (in test [1]; at FL-CHK1) were -3% and 0.7%, respectively. For the same compound, the values for the inhibition at 1 µM on CDK2/Cyclin A complex and on CDK4/Cyclin D3 complex were 10.1% and 37.8%, respectively.
In the case of `COc1cc(OC)c(-c2csc(-c3sc(Nc4ccc(C(C)C)cc4)nc3N)n2)c(O)c1Cl`, the values for the inhibition at 20 µM (in test [1]; at FL-CHK1) were 51% and 38.9%, respectively. Besides, the figures for the inhibition at 1 µM on CDK2/Cyclin A complex and on CDK4/Cyclin D3 complex were 31.8% and 72.8%, respectively.
In the case of `CC(C)c1ccc(Nc2nc(N)c(-c3nc(-c4ccc(Cl)cc4Cl)cs3)s2)cc1`, the inhibition at 20 µM in test [1] was found to be 23%; at FL-CHK1, 21.4%. In addition, the inhibition at 1 µM on CDK2/Cyclin A complex was 25.7%; at CDK4/Cyclin D3 complex, 81.4%.
For the compound `CC(C)c1ccc(Nc2nc(N)c(-c3nc(-c4c(Cl)cc(C(F)(F)F)cc4Cl)cs3)s2)cc1`, the inhibition at 20 µM in test [1] turned out to be 31%; on FL-CHK1 it was 14.8%. Also, the inhibition at 1 µM at CDK2/Cyclin A complex worked out at 26%; on CDK4/Cyclin D3 complex, 86.2%.
Taken in the same sequence, the figures for `COc1ccc(OC)c(-c2csc(-c3sc(Nc4ccc(N(C)C)cc4)nc3N)n2)c1` were 13%, 14.1%, 15.6% and 68.7%.
Turning to `Cc1c(C)c(C)c(-c2csc(-c3sc(Nc4ccc(C(C)C)cc4)nc3N)n2)c(C)c1C`, the inhibition at 20 µM in test [1] is 59%; on FL-CHK1, 34.9%. In addition, the inhibition at 1 µM is 39.9% at CDK2/Cyclin A complex and 84.7% at CDK4/Cyclin D3 complex.
With `CC(C)c1ccc(Nc2nc(N)c(-c3nc(-c4ccc(CC(=O)O)s4)cs3)s2)cc1`, the inhibition at 20 µM was determined as 33% in test [1] and 13% on FL-CHK1. The figures for the inhibition at 1 µM at CDK2/Cyclin A complex and on CDK4/Cyclin D3 complex were 21.8% and 61.8%, respectively.
`CCOC(=O)c1cc(-c2csc(-c3sc(Nc4ccc(N(C)C)cc4)nc3N)n2)on1`: the results for the inhibition at 20 µM (in test [1]; on FL-CHK1) were 9% and -4.5%, respectively. Moreover, the inhibition at 1 µM on CDK2/Cyclin A complex was 13.4%; on CDK4/Cyclin D3 complex, 33.7%.
In the case of `CC(C)c1ccc(Nc2nc(N)c(-c3nc(-c4ccc(Cl)cc4)cs3)s2)cc1`, the inhibition at 20 µM was -2% in test [1] and -0.2% at FL-CHK1. Also, the values for the inhibition at 1 µM at CDK2/Cyclin A complex and on CDK4/Cyclin D3 complex were 10.8% and 53.1%, respectively.
Consider `Nc1nc(Nc2ccc(S(N)(=O)=O)cc2)sc1-c1nc(-c2ccc(C(F)(F)F)cc2)cs1`, for which the inhibition at 20 µM in test [1] amounted to 2%; on FL-CHK1 it was 4.2%. In addition, the inhibition at 1 µM on CDK2/Cyclin A complex is 4.5%; at CDK4/Cyclin D3 complex, -3.6%.
For the compound `Cc1c(-c2csc(-c3sc(Nc4ccc(S(N)(=O)=O)cc4)nc3N)n2)sc2ccccc12`, the inhibition at 20 µM in test [1] was determined as 3%; at FL-CHK1, 5.6%. For the same compound, the inhibition at 1 µM at CDK2/Cyclin A complex is 9.2%; on CDK4/Cyclin D3 complex, -0.3%.
In the case of `Nc1nc(Nc2ccc(S(N)(=O)=O)cc2)sc1-c1nc(-c2cc(-c3ccc(Cl)c(Cl)c3)no2)cs1`, the inhibition at 20 µM was -5% in test [1] and 0.5% on FL-CHK1. Further, the inhibition at 1 µM on CDK2/Cyclin A complex is 16.1%; at CDK4/Cyclin D3 complex it was -31.3%.
Taken in the same sequence, the figures for `CC(C)c1ccc(Nc2nc(N)c(-c3nc(-c4ccc(F)cc4)cs3)s2)cc1` were 48%, 39.8%, 16.1% and 80.7%.
Taken in the same sequence, the figures for `CC(C)c1ccc(Nc2nc(N)c(-c3nc(-c4cc(Br)c(Cl)s4)cs3)s2)cc1` were 25%, 9.2%, 26% and 84.7%.
Taken in the same sequence, the figures for `Cc1cc(-c2csc(-c3sc(Nc4ccc(S(N)(=O)=O)cc4)nc3N)n2)cc(C)c1O` were 25%, 13.4%, 40.7% and 46%.
For `CC(C)c1ccc(Nc2nc(N)c(-c3nc(-c4ccc([N+](=O)[O-])cc4)cs3)s2)cc1`, the inhibition at 20 µM in test [1] was -4%; at FL-CHK1, 6%. Besides, the values for the inhibition at 1 µM on CDK2/Cyclin A complex and at CDK4/Cyclin D3 complex were 17.8% and 35.6%, respectively.

Usually inhibition stands for the drop in the measured response relative to a control, in per cent.
